Results: patent US9365588B2, “Benzoxazines as modulators of ion channels” (Vertex Pharmaceuticals Incorporated, priority 2011, dated 2016)

Molecular target: human NaV 1.7 (Homo sapiens, UniProt Q15858)
Assay: E-VIPR optical membrane potential assay with electrical stimulation
Assay type: cell-based
Conditions: sodium channel inhibition; read-out: Binned Activity Data (IC50)
Text: Assays for Detecting and Measuring NaV Inhibition Properties of Compound E-VIPR Optical Membrane Potential Assay Method with Electrical Stimulation
Sodium channels are voltage-dependent proteins that can be activated by inducing membrane voltage changes by applying electric fields. The electrical stimulation instrument and methods of use are described in Ion Channel Assay Methods PCT/US01/21652, herein incorporated by reference and are referred to as E-VIPR. The instrument comprises a microtiter plate handler, an optical system for exciting the coumarin dye while simultaneously recording the coumarin and oxonol emissions, a waveform generator, a current- or voltage-controlled amplifier, and a device for inserting electrodes in well. Under integrated computer control, this instrument passes user-programmed electrical stimulus protocols to cells within the wells of the microtiter plate.
24 hours before the assay on E-VIPR, HEK cells expressing human NaV subtype, like NaV 1.7, are seeded in 384-well poly-lysine coated plates at 15,000-20,000 cells per well. Other subtypes are performed in an analogous mode in a cell line expressing the NaV of interest. HEK cells are grown in media (exact composition is specific to each cell type and NaV subtype) supplemented with 10% FBS (Fetal Bovine Serum, qualified; GibcoBRL #16140-071) and 1% Pen-Strep (Penicillin-Streptomycin; GibcoBRL #15140-122). Cells are grown in vented cap flasks, in 90% humidity and 10% CO2, to 100% confluence. They are usually split by trypsinization 1:10 or 1:20, depending on scheduling needs, and grown for 2-3 days before the next split.
Bath1 buffer. Glucose 10 mM (1.8 g/L), Magnesium Chloride (Anhydrous), 1 mM (0.095 g/L), Calcium Chloride, 2 mM (0.222 g/L), HEPES 10 mM (2.38 g/L), Potassium Chloride, 4.5 mM (0.335 g/L), Sodium Chloride 160 mM (9.35 g/L).
Hexyl Dye Solution: Bath1 Buffer+0.5% β-cyclodextrin (make this prior to use, Sigma #C4767), 8 μM CC2-DMPE+2.5 μM DiSBAC6(3). To make the solution Add volume of 10% Pluronic F127 stock equal to volumes of CC2-DMPE+DiSBAC6(3). The order of preparation is first mix Pluronic and CC2-DMPE, then add DiSBAC6(3) while vortexing, then add Bath1+β-Cyclodextrin.
1) Pre-spot compounds (in neat DMSO) into compound plates. Vehicle control (neat DMSO), the positive control (20 mM DMSO stock tetracaine, 125 μM final in assay) and test compounds are added to each well at 160× desired final concentration in neat DMSO. Final compound plate volume will be 80 μL (80-fold intermediate dilution from 1 μL DMSO spot; 160-fold final dilution after transfer to cell plate). Final DMSO concentration for all wells in assay is 0.625%.
2) Prepare Hexyl Dye Solution.
3) Prepare cell plates. On the day of the assay, medium is aspirated and cells are washed three times with 100 μL of Bath1 Solution, maintaining 25 μL residual volume in each well.
4) Dispense 25 μL per well of Hexyl Dye Solution into cell plates. Incubate for 20-35 minutes at room temp or ambient conditions.
5) Dispense 80 μL per well of Bath1 into compound plates. Acid Yellow-17 (1 mM) is added and Potassium Chloride can be altered from 4.5 to 20 mM depending on the NaV subtype and assay sensitivity.
6) Wash cell plates three times with 100 μL per well of Bath1, leaving 25 μL of residual volume. Then transfer 25 uL per well from Compound Plates to Cell Plates. Incubate for 20-35 minutes at room temp/ambient condition
7) Read Plate on E-VIPR. Use the current-controlled amplifier to deliver stimulation wave pulses for typically 9 seconds and a scan rate of 400 Hz. A pre-stimulus recording is performed for 0.5 seconds to obtain the un-stimulated intensities baseline. The stimulatory waveform is applied for 9 seconds followed by 0.5 seconds of post-stimulation recording to examine the relaxation to the resting state. […]

Chain of human NaV 1.7 (Q15858 whole entry): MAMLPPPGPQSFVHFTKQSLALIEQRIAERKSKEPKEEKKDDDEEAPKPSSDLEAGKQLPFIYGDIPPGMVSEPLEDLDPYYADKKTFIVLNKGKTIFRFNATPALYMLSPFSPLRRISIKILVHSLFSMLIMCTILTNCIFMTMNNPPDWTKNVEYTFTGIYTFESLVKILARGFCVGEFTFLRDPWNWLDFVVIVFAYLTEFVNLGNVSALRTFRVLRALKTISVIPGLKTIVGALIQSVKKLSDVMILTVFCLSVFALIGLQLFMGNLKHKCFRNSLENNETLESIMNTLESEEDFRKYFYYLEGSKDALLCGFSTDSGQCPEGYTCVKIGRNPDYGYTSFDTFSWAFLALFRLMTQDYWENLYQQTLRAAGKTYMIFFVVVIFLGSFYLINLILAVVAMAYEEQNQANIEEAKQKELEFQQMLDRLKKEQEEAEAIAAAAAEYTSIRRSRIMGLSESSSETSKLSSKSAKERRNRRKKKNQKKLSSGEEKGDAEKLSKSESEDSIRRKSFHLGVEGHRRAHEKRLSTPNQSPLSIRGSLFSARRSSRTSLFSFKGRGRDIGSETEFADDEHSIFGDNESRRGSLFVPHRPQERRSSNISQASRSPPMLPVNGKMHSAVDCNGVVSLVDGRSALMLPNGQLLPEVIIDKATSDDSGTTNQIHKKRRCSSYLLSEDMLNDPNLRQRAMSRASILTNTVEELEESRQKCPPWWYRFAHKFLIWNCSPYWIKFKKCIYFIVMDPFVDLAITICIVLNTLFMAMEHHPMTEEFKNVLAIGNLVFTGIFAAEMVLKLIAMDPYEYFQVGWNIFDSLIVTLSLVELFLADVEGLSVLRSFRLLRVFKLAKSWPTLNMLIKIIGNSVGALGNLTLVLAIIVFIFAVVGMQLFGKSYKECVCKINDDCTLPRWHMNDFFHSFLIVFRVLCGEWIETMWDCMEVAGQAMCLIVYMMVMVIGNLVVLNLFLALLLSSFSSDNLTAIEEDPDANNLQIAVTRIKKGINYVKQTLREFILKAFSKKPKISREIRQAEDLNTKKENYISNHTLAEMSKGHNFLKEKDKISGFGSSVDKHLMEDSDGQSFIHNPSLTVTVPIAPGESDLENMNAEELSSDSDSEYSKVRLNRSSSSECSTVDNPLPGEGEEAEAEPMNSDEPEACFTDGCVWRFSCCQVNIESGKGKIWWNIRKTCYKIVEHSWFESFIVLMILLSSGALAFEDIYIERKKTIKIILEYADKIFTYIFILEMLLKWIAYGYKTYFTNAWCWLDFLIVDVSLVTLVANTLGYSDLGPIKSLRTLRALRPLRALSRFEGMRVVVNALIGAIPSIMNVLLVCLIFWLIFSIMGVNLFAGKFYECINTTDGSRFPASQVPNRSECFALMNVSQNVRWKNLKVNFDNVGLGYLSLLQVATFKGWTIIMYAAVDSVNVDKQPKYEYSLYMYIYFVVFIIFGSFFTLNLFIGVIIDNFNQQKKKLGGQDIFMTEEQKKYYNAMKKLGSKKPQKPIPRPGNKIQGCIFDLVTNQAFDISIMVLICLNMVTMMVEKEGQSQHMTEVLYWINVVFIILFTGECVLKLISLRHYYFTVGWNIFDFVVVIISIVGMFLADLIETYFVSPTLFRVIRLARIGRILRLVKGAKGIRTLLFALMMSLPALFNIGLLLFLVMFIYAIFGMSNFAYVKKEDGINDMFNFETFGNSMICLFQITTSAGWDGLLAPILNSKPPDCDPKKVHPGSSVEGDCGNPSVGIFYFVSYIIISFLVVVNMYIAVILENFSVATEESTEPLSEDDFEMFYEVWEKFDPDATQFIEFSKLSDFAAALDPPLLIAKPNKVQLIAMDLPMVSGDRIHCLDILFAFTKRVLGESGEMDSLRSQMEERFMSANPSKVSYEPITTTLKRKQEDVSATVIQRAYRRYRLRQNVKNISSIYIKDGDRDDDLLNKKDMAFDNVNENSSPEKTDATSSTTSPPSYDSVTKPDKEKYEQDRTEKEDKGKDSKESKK

Row | SMILES | IC50 [µM]
1 | N#Cc1ccc2n1-c1ccccc1OC21CCN(C(=O)c2ccc(OC(F)F)cc2)CC1 [Compound 2] | > 5
2 | COc1c(CO)cccc1C(=O)N1CCC2(CC1)Oc1ccccc1-n1c(C#N)ccc12 [Compound 3] | ≤ 2
3 | CC(C)C(O)c1ccc(C(=O)N2CCC3(CC2)Oc2ccccc2-c2nn(C)cc23)cc1 (stereo not shown) [Compound 4] | ≤ 2
4 | Cc1cc(C(=O)N2CCC3(CC2)Oc2ccccc2-c2c3cnn2C)ccc1OC(C)C [Compound 5] | ≤ 2
5 | Cc1cc(C(=O)N2CCC3(CC2)Oc2cccc(C)c2-n2cccc23)ccc1OC(C)C [Compound 7] | ≤ 2
6 | Nc1nc2ccc(C(=O)N3CCC4(CC3)Oc3ccccc3-n3c(C(F)(F)F)ccc34)cc2s1 [Compound 8] | 2 to 5
7 | O=C(c1ccc(C2(O)COC2)cc1)N1CCC2(CC1)Oc1ccccc1-n1c(C(F)(F)F)ccc12 [Compound 9] | ≤ 2
8 | CC(C)CS(=O)(=O)c1ccc(C(=O)N2CCC3(CC2)Oc2ccccc2-n2c(C(F)(F)F)ccc23)cc1 [Compound 11] | ≤ 2
9 | CC(C)(C(=O)O)S(=O)(=O)c1ccc(C(=O)N2CCC3(CC2)Oc2ccccc2-n2c(C(F)(F)F)ccc23)cc1 [Compound 12] | 2 to 5
10 | CCOc1ccc(C(=O)N2CCC3(CC2)Oc2ccccc2-c2c3cnn2C)c(OCC)c1C [Compound 13] | ≤ 2
11 | COc1ccc2[nH]cc(C(=O)N3CCC4(CC3)Oc3ccccc3-c3c4cnn3C)c2c1 [Compound 14] | ≤ 2
12 | O=C(c1ccc2ncsc2c1)N1CCC2(CC1)Oc1ccccc1-n1c(C(F)(F)F)ccc12 [Compound 15] | > 5
13 | COc1ccc2c(c1)-c1c(cnn1C)C1(CCN(C(=O)c3ccccc3OC)CC1)O2 [Compound 16] | ≤ 2
14 | N#Cc1ccc2n1-c1ccccc1OC21CCN(C(=O)c2ccc(S(=O)(=O)NCCO)cc2)CC1 [Compound 17] | 2 to 5
15 | O=C(c1ccccc1OC(F)F)N1CCC2(CC1)Oc1cc(Cl)ccc1-n1cccc12 [Compound 21] | ≤ 2
16 | Cc1cc(C)c(C(=O)N2CCC3(CC2)Oc2cc(Cl)ccc2-n2cccc23)c(=O)[nH]1 [Compound 22] | 2 to 5

Row | SMILES | IC50 [µM]
17 | COc1c(CO)cccc1C(=O)N1CCC2(CC1)Oc1ccccc1-n1c(C(F)(F)F)ccc12 [Compound 23] | ≤ 2
18 | COc1c(F)cccc1C(=O)N1CCC2(CC1)Oc1ccccc1-n1c(C#N)ccc12 [Compound 24] | ≤ 2
19 | Cn1ncc2c1-c1ccccc1OC21CCN(C(=O)c2ccc(OCCOC(F)(F)F)c(C#N)c2)CC1 [Compound 26] | ≤ 2
20 | Cc1ccc(C(=O)N2CCC3(CC2)Oc2ccccc2-n2cccc23)cc1Cl [Compound 27] | ≤ 2
21 | Cn1ncc2c1-c1ccccc1OC21CCN(C(=O)c2ccc(OC(C)(C)C)cc2)CC1 [Compound 28] | 2 to 5
22 | COc1cc(Cl)cc(C(=O)N2CCC3(CC2)Oc2cc(Cl)ccc2-n2cccc23)c1 [Compound 29] | ≤ 2
23 | COc1cc(C(=O)N2CCC3(CC2)Oc2cc(F)ccc2-n2cccc23)ccc1OC[C@@H](C)OC [Compound 30] | ≤ 2
24 | COC[C@@H](C)Oc1ccc(C(=O)N2CCC3(CC2)Oc2cc(Cl)ccc2-n2cccc23)cc1OC [Compound 31] | ≤ 2
25 | Cc1cc(C(=O)N2C3CCC2CC2(C3)Oc3ccccc3-n3cccc32)ccc1OC(C)C (stereo not shown) [Compound 32] | ≤ 2
26 | COc1cc(C(=O)N2CCC3(CC2)Oc2cc(F)ccc2-n2cccc23)ccc1O[C@@H]1CCC[C@H]1O [Compound 34] | ≤ 2
27 | CC(C)Oc1ccc(C(=O)N2CCC3(CC2)Oc2ccccc2-n2c(C(F)(F)F)ccc23)nc1 [Compound 36] | ≤ 2
28 | O=C(c1ccc(OC2COC2)c(C(F)(F)F)c1)N1CCC2(CC1)Oc1ccccc1-n1cccc12 [Compound 37] | ≤ 2
29 | Cc1cc(C(=O)N2CCC3(CC2)Oc2cc(F)ccc2-n2cccc23)ccc1OC(C)C [Compound 38] | ≤ 2
30 | CC(C)c1ccc(C(=O)N2CCC3(CC2)Oc2cc(Cl)ccc2-n2cccc23)c(=O)[nH]1 [Compound 39] | ≤ 2
31 | CC(C)Oc1ccc(C(=O)N2CCC3(CC2)Oc2ccccc2-c2c3cnn2C)c(C#N)c1 [Compound 40] | 2 to 5
